Experimental data: ChEMBL document CHEMBL4507304, “Data for DCP probe TP-021” (2021)

Tests used:
[1] = biological target: Interleukin-1 receptor-associated kinase 1 (Homo sapiens) (UniProt P51617); conditions: Compound concentration 1000.0 nM
[2] = biological target: Serine/threonine-protein kinase 33 (Homo sapiens) (UniProt Q9BYT3); conditions: Compound concentration 1000.0 nM
[3] = biological target: Protein kinase C eta type (Homo sapiens) (UniProt P24723); conditions: Compound concentration 1000.0 nM
[4] = biological target: Tyrosine-protein kinase HCK (Homo sapiens) (UniProt P08631); conditions: Compound concentration 1000.0 nM
[5] = biological target: Calcium/calmodulin-dependent protein kinase type 1B (Homo sapiens) (UniProt Q6P2M8); conditions: Compound concentration 1000.0 nM
[6] = biological target: Phosphorylase b kinase gamma catalytic chain, skeletal muscle/heart isoform (Homo sapiens) (UniProt Q16816); conditions: Compound concentration 1000.0 nM
[7] = biological target: Activin receptor type-2B (Homo sapiens) (UniProt Q13705); conditions: Compound concentration 1000.0 nM
[8] = tested on: Receptor-type tyrosine-protein kinase FLT3 (Homo sapiens), P36888 [UNDEFINED MUTATION]; conditions: Compound concentration 1000.0 nM
[9] = biological target: Atypical kinase COQ8A, mitochondrial (Homo sapiens) (UniProt Q8NI60); conditions: Compound concentration 1000.0 nM
[10] = biological target: Serine/threonine-protein kinase ULK2 (Homo sapiens) (UniProt Q8IYT8); conditions: Compound concentration 1000.0 nM
[11] = biological target: Cytoplasmic tyrosine-protein kinase BMX (Homo sapiens) (UniProt P51813); conditions: Compound concentration 1000.0 nM
[12] = biological target: Serine/threonine-protein kinase TNNI3K (Homo sapiens) (UniProt Q59H18); conditions: Compound concentration 1000.0 nM
[13] = biological target: BDNF/NT-3 growth factors receptor (Homo sapiens) (UniProt Q16620); conditions: Compound concentration 1000.0 nM
[14] = biological target: Mitogen-activated protein kinase kinase kinase 11 (Homo sapiens) (UniProt Q16584); conditions: Compound concentration 1000.0 nM
[15] = biological target: Ephrin type-A receptor 8 (Homo sapiens) (UniProt P29322); conditions: Compound concentration 1000.0 nM
[16] = biological target: Phosphatidylinositol 4,5-bisphosphate 3-kinase catalytic subunit beta isoform (Homo sapiens) (UniProt P42338); conditions: Compound concentration 1000.0 nM
[17] = biological target: Cyclin-dependent kinase 4 (Homo sapiens) (UniProt P11802); conditions: Compound concentration 1000.0 nM
[18] = biological target: SRSF protein kinase 2 (Homo sapiens) (UniProt P78362); conditions: Compound concentration 1000.0 nM
[19] = biological target: Tyrosine-protein kinase ABL1 (Homo sapiens) (UniProt P00519); conditions: Compound concentration 1000.0 nM
[20] = biological target: Serine/threonine-protein kinase 16 (Homo sapiens) (UniProt O75716); conditions: Compound concentration 1000.0 nM
[21] = tested on: Epidermal growth factor receptor (Homo sapiens), P00533 [G719S]; conditions: Compound concentration 1000.0 nM
[22] = biological target: Serine/threonine-protein kinase WNK4 (Homo sapiens) (UniProt Q96J92); conditions: Compound concentration 1000.0 nM
[23] = biological target: Serine/threonine-protein kinase D2 (Homo sapiens) (UniProt Q9BZL6); conditions: Compound concentration 1000.0 nM
[24] = biological target: Vascular endothelial growth factor receptor 2 (Homo sapiens) (UniProt P35968); conditions: Compound concentration 1000.0 nM
[25] = biological target: Mitogen-activated protein kinase kinase kinase 13 (Homo sapiens) (UniProt O43283); conditions: Compound concentration 1000.0 nM
[26] = biological target: Serine/threonine-protein kinase 10 (Homo sapiens) (UniProt O94804); conditions: Compound concentration 1000.0 nM
[27] = biological target: Glycogen synthase kinase-3 beta (Homo sapiens) (UniProt P49841); conditions: Compound concentration 1000.0 nM
[28] = biological target: Calcium/calmodulin-dependent protein kinase type II subunit alpha (Homo sapiens) (UniProt Q9UQM7); conditions: Compound concentration 1000.0 nM
[29] = biological target: Glycogen synthase kinase-3 alpha (Homo sapiens) (UniProt P49840); conditions: Compound concentration 1000.0 nM
[30] = tested on: Tyrosine-protein kinase ABL1 (Homo sapiens), P00519 [F317L]; conditions: Compound concentration 1000.0 nM
[31] = biological target: Serine/threonine-protein kinase MRCK gamma (Homo sapiens) (UniProt Q6DT37); conditions: Compound concentration 1000.0 nM
[32] = biological target: Mitogen-activated protein kinase 11 (Homo sapiens) (UniProt Q15759); conditions: Compound concentration 1000.0 nM
[33] = biological target: ALK tyrosine kinase receptor (Homo sapiens) (UniProt Q9UM73); conditions: Compound concentration 1000.0 nM
[34] = biological target: Serine/threonine-protein kinase BRSK1 (Homo sapiens) (UniProt Q8TDC3); conditions: Compound concentration 1000.0 nM
[35] = tested on: Tyrosine-protein kinase ABL1 (Homo sapiens), P00519 [T315I]; conditions: Compound concentration 1000.0 nM
[36] = biological target: Dual specificity mitogen-activated protein kinase kinase 5 (Homo sapiens) (UniProt Q13163); conditions: Compound concentration 1000.0 nM
[37] = biological target: Wee1-like protein kinase (Homo sapiens) (UniProt P30291); conditions: Compound concentration 1000.0 nM
[38] = biological target: Homeodomain-interacting protein kinase 1 (Homo sapiens) (UniProt Q86Z02); conditions: Compound concentration 1000.0 nM
[39] = biological target: Serine/threonine-protein kinase SIK1 (Homo sapiens) (UniProt P57059); conditions: Compound concentration 1000.0 nM
[40] = biological target: Serine/threonine-protein kinase OSR1 (Homo sapiens) (UniProt O95747); conditions: Compound concentration 1000.0 nM
[41] = biological target: Fibroblast growth factor receptor 2 (Homo sapiens) (UniProt P21802); conditions: Compound concentration 1000.0 nM
[42] = biological target: 5-hydroxytryptamine receptor 6 (Homo sapiens) (UniProt P50406); conditions: Compound concentration 10.0 uM
[43] = biological target: Serine/threonine-protein kinase RIO2 (Homo sapiens) (UniProt Q9BVS4); conditions: Compound concentration 1000.0 nM
[44] = biological target: Mast/stem cell growth factor receptor Kit (Homo sapiens) (UniProt P10721); conditions: Compound concentration 1000.0 nM
[45] = tested on: Tyrosine-protein kinase ABL1 (Homo sapiens), P00519 [T315I]; conditions: Compound concentration 1000.0 nM; remark: listed apart in the source

Mitogen-activated protein kinase kinase kinase 13 (Homo sapiens), sequence (O43283 whole entry): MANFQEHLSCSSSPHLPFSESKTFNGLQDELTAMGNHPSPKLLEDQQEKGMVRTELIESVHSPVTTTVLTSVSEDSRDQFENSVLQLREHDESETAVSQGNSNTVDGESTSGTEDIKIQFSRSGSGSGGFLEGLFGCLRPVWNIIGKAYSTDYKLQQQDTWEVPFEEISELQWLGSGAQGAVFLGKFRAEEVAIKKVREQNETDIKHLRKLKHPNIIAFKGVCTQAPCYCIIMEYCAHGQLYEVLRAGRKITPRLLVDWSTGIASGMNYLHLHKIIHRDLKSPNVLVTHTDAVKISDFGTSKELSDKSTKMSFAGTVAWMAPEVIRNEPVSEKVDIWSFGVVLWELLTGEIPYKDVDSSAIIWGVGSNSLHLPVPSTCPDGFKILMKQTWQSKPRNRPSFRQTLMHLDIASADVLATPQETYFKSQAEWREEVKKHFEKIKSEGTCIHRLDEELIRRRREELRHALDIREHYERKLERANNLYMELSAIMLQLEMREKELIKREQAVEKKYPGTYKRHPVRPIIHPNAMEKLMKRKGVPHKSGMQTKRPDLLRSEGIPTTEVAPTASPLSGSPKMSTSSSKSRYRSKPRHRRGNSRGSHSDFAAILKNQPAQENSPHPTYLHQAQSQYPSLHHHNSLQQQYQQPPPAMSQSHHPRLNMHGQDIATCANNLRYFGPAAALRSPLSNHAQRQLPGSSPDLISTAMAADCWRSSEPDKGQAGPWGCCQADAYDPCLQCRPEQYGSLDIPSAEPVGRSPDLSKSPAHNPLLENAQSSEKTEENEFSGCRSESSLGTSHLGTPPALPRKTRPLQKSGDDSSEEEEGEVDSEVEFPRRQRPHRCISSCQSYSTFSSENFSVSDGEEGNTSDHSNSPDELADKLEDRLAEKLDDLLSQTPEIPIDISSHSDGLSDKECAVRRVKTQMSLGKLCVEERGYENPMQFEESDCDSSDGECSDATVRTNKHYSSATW
Receptor-type tyrosine-protein kinase FLT3 (Homo sapiens), P36888 [UNDEFINED MUTATION], sequence (P36888 whole entry, looked up, change not shown): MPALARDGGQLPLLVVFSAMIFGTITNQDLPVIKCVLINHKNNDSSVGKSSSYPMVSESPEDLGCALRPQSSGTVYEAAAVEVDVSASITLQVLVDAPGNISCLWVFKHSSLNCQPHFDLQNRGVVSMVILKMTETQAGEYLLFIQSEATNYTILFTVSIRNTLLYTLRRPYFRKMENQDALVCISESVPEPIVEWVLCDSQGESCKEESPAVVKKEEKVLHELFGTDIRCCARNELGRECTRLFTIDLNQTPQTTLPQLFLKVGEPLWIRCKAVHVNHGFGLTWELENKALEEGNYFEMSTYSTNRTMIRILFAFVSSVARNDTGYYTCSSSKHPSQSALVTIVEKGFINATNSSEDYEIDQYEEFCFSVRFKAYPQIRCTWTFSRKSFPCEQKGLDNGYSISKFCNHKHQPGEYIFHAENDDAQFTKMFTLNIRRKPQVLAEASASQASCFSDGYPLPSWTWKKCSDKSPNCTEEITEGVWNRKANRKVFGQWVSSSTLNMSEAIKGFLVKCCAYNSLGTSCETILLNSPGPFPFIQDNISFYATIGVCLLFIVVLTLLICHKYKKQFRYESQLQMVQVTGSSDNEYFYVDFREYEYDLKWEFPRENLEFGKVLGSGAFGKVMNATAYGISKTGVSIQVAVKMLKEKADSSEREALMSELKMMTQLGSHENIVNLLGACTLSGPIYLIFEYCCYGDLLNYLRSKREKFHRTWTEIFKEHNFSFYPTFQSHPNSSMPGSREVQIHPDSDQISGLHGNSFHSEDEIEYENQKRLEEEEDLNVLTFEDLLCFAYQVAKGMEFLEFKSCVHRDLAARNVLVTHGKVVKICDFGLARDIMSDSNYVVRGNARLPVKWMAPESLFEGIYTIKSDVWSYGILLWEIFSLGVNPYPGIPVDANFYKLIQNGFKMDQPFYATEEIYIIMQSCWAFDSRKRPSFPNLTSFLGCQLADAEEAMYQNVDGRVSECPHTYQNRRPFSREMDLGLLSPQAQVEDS
Vascular endothelial growth factor receptor 2 (Homo sapiens), sequence (P35968 whole entry): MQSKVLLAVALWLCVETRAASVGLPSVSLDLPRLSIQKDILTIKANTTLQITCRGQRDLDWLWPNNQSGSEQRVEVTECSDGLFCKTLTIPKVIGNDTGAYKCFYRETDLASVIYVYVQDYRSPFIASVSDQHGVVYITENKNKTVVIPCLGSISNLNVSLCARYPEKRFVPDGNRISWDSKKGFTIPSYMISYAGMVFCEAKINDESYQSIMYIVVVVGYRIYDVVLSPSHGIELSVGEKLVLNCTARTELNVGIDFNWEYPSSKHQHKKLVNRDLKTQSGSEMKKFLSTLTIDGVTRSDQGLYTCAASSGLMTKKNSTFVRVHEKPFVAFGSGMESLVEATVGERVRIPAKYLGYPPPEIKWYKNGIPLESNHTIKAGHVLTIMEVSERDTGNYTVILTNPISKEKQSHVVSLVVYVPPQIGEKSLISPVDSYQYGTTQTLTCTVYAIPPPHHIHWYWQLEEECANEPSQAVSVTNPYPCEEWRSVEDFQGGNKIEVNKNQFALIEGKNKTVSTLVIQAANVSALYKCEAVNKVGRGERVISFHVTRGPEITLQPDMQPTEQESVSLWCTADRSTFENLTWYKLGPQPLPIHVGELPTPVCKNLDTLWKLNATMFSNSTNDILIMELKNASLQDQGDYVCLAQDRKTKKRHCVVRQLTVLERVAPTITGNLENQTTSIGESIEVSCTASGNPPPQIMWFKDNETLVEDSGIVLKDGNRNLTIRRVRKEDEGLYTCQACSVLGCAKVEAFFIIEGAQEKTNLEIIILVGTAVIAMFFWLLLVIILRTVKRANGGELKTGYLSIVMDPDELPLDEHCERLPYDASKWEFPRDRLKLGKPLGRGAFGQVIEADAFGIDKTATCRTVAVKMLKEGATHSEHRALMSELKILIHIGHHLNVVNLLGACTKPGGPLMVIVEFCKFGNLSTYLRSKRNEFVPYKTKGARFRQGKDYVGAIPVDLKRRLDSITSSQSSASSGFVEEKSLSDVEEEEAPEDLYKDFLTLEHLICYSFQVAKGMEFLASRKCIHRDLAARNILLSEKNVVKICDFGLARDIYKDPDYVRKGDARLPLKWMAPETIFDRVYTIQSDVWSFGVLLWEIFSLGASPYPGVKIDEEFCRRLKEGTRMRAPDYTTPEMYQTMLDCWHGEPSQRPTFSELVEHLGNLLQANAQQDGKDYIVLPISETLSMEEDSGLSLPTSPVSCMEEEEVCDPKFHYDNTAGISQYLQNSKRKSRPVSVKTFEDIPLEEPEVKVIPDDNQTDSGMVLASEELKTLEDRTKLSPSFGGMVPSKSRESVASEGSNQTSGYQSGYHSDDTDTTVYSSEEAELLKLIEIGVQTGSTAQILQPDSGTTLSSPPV
Glycogen synthase kinase-3 alpha (Homo sapiens), sequence (P49840 2-483 limits assumed): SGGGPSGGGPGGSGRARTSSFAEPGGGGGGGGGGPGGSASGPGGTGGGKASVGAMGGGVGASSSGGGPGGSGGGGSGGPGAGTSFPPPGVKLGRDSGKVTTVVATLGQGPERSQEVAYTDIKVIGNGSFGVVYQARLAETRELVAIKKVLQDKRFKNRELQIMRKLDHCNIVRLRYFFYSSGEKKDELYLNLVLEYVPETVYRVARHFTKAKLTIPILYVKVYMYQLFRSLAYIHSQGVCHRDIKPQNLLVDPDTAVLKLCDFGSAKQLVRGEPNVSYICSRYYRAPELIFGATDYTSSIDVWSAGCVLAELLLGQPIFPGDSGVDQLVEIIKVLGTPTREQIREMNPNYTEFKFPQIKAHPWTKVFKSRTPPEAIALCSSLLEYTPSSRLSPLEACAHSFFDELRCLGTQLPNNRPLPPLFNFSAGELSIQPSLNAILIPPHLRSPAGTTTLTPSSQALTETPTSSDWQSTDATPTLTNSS
Serine/threonine-protein kinase ULK2 (Homo sapiens), sequence (Q8IYT8 whole entry): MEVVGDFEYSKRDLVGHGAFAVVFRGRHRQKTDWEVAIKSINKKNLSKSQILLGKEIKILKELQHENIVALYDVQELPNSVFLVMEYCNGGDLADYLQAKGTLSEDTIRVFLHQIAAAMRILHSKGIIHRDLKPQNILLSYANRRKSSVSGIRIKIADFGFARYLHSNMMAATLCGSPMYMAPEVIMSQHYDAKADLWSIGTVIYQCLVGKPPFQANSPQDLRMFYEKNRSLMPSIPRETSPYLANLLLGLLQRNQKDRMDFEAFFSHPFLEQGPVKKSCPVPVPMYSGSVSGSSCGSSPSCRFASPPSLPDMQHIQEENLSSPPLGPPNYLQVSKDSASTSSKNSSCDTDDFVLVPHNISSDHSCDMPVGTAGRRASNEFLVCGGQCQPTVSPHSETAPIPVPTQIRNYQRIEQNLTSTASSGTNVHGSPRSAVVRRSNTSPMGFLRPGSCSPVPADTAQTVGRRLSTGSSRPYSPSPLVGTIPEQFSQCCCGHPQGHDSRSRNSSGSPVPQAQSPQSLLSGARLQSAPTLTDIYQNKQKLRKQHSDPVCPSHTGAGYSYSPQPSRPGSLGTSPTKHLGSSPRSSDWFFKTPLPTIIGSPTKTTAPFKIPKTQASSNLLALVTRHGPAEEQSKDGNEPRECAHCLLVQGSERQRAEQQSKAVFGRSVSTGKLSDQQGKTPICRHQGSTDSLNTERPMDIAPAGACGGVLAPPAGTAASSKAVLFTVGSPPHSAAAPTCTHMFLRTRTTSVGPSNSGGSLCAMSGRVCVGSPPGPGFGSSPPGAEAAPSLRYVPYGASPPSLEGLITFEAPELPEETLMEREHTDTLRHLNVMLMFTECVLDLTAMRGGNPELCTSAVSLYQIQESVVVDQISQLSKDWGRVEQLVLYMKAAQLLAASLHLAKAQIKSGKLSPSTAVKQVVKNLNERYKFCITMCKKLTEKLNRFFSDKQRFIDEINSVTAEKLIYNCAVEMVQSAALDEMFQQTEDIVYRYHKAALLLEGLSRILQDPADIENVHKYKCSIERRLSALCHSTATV

N#Cc1ccc(Nc2ccc3[nH]c(=O)[nH]c3c2)c(Cl)c1
inactive: residual activity [1] 100% | residual activity [2] 93% | residual activity [3] 97% | residual activity [4] 100% | residual activity [5] 78% | residual activity [6] 100% | residual activity [7] 81% | residual activity [8] 100% | residual activity [9] 100% | residual activity [10] 99% | residual activity [11] 100% | residual activity [12] 65% | residual activity [13] 100% | residual activity [14] 100% | residual activity [15] 100% | residual activity [16] 100% | residual activity [17] 86% | residual activity [18] 100% | residual activity [19] 100% | residual activity [20] 91% | residual activity [21] 100% | residual activity [22] 100% | residual activity [23] 100% | residual activity [24] 99% | residual activity [25] 100% | residual activity [26] 100% | residual activity [27] 96% | residual activity [28] 84% | residual activity [29] 100% | residual activity [30] 100% | residual activity [31] 100% | residual activity [32] 100% | residual activity [33] 100% | residual activity [34] 100% | residual activity [35] 90% | residual activity [36] 100% | residual activity [37] 87% | residual activity [38] 82% | residual activity [39] 100% | residual activity [40] 75% | residual activity [41] 100% | inhibition [42] -1.18% | residual activity [43] 89% | residual activity [44] 100% | residual activity [45] 93%

O=C1CCc2cc(Nc3cc(OC4CCOCC4)c([N+](=O)[O-])cc3Cl)ccc2N1
inactive: residual activity [1] 98% | residual activity [2] 77% | residual activity [3] 86% | residual activity [4] 100% | residual activity [5] 68% | residual activity [6] 100% | residual activity [7] 89% | residual activity [8] 78% | residual activity [9] 100% | residual activity [10] 99% | residual activity [11] 69% | residual activity [12] 60% | residual activity [13] 100% | residual activity [14] 100% | residual activity [15] 100% | residual activity [16] 97% | residual activity [17] 78% | residual activity [18] 100% | residual activity [19] 100% | residual activity [20] 93% | residual activity [21] 100% | residual activity [22] 100% | residual activity [23] 85% | residual activity [24] 100% | residual activity [25] 91% | residual activity [26] 100% | residual activity [27] 96% | residual activity [28] 85% | residual activity [29] 100% | residual activity [30] 74% | residual activity [31] 99% | residual activity [32] 88% | residual activity [33] 82% | residual activity [34] 100% | residual activity [35] 99% | residual activity [36] 100% | residual activity [37] 99% | residual activity [38] 95% | residual activity [39] 96% | residual activity [40] 83% | residual activity [41] 100% | inhibition [42] -2.48% | residual activity [43] 89% | residual activity [44] 99% | residual activity [45] 80%
